According to ChEMBL document CHEMBL1201862, “PubChem BioAssay data set” (2004):
Active and inactive are the calls of the source.

Columns and labels:
[1] = biological target: T1, Short transient receptor potential channel 4 (Mus musculus, UniProt Q9QUQ5); assay: TRPC4 positive allosteric modulators, dose response, cell-based, HEK293 TRPC4/mu-opioid, Fluo-4 calcium, EC20 DAMGO (AID 434941); format: functional
T1 sequence (Q9QUQ5 whole entry): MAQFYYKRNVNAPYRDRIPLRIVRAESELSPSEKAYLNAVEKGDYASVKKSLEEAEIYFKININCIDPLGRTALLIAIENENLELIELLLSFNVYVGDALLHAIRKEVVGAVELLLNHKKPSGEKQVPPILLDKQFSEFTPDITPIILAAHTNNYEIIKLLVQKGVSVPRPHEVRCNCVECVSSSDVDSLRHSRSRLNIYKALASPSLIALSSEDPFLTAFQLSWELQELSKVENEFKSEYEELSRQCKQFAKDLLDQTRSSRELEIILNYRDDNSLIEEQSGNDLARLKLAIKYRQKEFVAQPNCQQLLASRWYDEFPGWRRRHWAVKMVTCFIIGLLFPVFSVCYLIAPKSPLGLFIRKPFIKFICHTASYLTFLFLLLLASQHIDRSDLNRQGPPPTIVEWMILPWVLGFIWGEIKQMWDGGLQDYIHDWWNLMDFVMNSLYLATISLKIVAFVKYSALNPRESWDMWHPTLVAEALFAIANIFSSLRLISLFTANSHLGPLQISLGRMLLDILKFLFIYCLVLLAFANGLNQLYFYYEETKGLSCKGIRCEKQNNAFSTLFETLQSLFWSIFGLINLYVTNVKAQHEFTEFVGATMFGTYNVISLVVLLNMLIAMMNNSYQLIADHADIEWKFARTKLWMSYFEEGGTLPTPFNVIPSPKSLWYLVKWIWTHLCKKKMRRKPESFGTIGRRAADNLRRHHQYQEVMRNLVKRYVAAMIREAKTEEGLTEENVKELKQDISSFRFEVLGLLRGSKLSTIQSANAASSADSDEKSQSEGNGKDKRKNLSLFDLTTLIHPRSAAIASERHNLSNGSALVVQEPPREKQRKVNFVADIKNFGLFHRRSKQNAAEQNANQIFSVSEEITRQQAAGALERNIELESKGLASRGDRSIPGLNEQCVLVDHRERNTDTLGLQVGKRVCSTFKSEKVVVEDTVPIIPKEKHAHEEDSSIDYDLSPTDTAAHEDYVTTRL

[2] = biological target: Eukaryotic translation initiation factor 4E (Mus musculus, UniProt P63073); assay: eIF4E–eIF4G protein interaction inhibitors, dose response, biochemical, TR-FRET (AID 855); format: functional;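 further: potency for disrupting eIF4E binding to eIF4GI seen as loss of FRET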
Vero = assay: cells; format: functional; conditions: Chlorocebus sabaeus
Large T antigen = Large T antigen (Simian virus 40, UniProt P03070); format: functional, Betapolyomavirus macacae;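 further: Confirmatory-stage PubChem screen for compounds that inhibit SV40 T antigen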
[3] = biological target: T2, Mannose-6-phosphate isomerase (Homo sapiens, UniProt P34949); assay: human PMI inhibitors, high substrate, primary screen, biochemical, fluorescence intensity, high mannose 6-phosphate (AID 1220)
T2 sequence (P34949 whole entry): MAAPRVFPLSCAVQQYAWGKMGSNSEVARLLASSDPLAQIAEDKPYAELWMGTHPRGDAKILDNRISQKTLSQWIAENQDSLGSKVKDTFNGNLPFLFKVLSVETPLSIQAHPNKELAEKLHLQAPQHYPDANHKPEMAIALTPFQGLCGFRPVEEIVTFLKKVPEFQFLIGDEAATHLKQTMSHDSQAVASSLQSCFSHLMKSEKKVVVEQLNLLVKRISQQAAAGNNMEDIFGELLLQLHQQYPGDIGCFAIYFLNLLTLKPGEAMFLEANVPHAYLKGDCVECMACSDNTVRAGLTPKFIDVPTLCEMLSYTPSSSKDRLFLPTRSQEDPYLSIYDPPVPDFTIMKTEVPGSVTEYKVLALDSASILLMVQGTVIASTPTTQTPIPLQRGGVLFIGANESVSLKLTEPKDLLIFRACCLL

[4] = biological target: T2, Mannose-6-phosphate isomerase; assay: PMI enzyme inhibitors, confirmation, biochemical, fluorescence intensity (AID 1535)
Phosphomannomutase 2 = Phosphomannomutase 2 (Homo sapiens, UniProt O15305); assay: Counter screen SAR assay for PMM2 inhibitors via a fluorescence intensity assay. [Related pubchem assays (depositor defined):AID1545, AID1574]
[5] = biological target: Glucose-6-phosphate 1-dehydrogenase (Homo sapiens, UniProt P11413); assay: human G6PD enzyme inhibitors, dose response, selectivity assay for P. falciparum G6PD inhibitor project, biochemical, fluorescence (AID 504792); format: functional
[6] = biological target: T3, Carboxy-terminal domain RNA polymerase II polypeptide A small phosphatase 1 (Homo sapiens, UniProt Q9GZU7); assay: inhibitors of CTDSP1, concentration-response testing, biochemical assay, absorbance-based, actives from ultra-high-throughput screening (AID 540297); format: functional
T3 sequence (Q9GZU7 whole entry): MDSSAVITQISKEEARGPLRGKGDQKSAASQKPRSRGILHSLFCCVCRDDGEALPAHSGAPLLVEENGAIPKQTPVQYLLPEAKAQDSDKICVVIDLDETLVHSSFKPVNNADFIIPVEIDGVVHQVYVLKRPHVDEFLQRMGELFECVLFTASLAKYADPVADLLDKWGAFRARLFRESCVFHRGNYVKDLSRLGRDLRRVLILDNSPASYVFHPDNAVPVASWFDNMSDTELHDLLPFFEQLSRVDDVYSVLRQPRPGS

[7] = biological target: DNA dC->dU-editing enzyme APOBEC-3A (Homo sapiens, UniProt P31941); assay: Dose Response confirmation of small molecule APOBEC3A DNA Deaminase Inhibitors via a fluorescence-based single-stranded DNA deaminase assay. [Related pubchem assays (depositor defined):AID493011, AID493024]; format: functional
[8] = biological target: T4, Heat shock factor protein 1 (Mus musculus, UniProt P38532); assay: inhibition of MG132-induced HSE-luciferase signal, confirmation, cell-based, NIH3T3, luminescence, dose retest (AID 2382); format: functional;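 further: NIH3T3 fibroblasts with HSF1-driven luciferase reporter stressed by proteasome inhibitor MG132; luminescence from HSF1-driven luciferase expression after 8 hours of MG132 stress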
T4 sequence (P38532 whole entry): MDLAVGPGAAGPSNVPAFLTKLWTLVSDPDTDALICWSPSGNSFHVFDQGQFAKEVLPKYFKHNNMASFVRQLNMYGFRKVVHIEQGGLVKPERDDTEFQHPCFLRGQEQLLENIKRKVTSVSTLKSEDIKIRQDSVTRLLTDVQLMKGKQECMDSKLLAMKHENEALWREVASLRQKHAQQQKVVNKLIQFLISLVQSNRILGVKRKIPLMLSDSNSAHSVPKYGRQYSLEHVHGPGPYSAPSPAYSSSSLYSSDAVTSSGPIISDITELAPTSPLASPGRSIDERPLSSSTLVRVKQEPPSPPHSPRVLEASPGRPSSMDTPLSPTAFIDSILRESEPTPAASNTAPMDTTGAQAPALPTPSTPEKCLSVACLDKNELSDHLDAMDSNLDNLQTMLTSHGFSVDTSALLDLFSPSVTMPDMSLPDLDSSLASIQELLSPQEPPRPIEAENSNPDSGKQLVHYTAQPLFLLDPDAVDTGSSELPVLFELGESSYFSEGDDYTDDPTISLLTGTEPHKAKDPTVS

[9] = biological target: DNA dC->dU-editing enzyme APOBEC-3G (Homo sapiens, UniProt Q9HC16); format: functional;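 further: Dose-response counterscreen measuring inhibition of APOBEC3G DNA deaminase activity, run while confirming APOBEC3A inhibitors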
[10] = biological target: T5, Eukaryotic translation initiation factor 4H (Homo sapiens, UniProt Q15056); assay: eIF4H inhibition in translation initiation, SAR follow-up (AID 435011); format: functional
[11] = biological target: T5, Eukaryotic translation initiation factor 4H; assay: human eIF4H binding inhibitors, primary screen, translation initiation inhibitor project, biochemical, uHTS, fluorescence polarization (AID 2012)
[12] = biological target: T6, Polyadenylate-binding protein 1 (Homo sapiens, UniProt P11940); assay: PABP inhibition in translation initiation, SAR follow-up (AID 435018); format: functional
[13] = biological target: T6, Polyadenylate-binding protein 1; assay: PABP poly(A) RNA binding inhibitors, primary screen, biochemical, fluorescence polarization, uHTS (AID 2014)
[14] = biological target: G-protein coupled receptor 55 (Homo sapiens, UniProt Q9Y2T6); assay: GPR55 agonists via beta-arrestin recruitment, primary screen, imaging, U2OS cells, beta-arrestin-GFP redistribution (AID 1961); format: functional
Sequence of G-protein coupled receptor 55 (Q9Y2T6 whole entry): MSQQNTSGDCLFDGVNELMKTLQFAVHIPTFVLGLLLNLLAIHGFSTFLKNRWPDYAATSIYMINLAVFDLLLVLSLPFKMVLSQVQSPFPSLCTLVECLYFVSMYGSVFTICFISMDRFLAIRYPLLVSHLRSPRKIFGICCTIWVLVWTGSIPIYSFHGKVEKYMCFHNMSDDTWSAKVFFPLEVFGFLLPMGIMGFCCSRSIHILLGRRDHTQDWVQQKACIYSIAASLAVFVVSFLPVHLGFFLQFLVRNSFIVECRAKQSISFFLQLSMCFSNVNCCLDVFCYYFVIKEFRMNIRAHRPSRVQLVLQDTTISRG

T6 sequence (P11940 whole entry): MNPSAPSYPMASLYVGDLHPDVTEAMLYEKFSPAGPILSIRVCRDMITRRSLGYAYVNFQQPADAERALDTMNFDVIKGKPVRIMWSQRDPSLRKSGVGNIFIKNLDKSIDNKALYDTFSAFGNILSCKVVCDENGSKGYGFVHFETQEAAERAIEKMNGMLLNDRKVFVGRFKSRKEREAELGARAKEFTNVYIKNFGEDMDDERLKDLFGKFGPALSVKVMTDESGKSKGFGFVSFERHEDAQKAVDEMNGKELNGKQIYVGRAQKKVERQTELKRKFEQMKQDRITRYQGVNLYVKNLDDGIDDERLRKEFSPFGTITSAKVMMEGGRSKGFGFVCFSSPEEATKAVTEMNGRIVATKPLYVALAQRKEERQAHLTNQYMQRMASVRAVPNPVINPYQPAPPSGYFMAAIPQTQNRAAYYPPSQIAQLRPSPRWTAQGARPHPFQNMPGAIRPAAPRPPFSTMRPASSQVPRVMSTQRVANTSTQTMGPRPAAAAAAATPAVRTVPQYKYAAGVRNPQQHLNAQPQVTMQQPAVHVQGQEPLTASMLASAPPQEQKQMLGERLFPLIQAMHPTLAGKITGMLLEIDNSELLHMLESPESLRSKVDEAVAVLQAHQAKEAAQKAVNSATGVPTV
Sequence of Eukaryotic translation initiation factor 4E (P63073 whole entry): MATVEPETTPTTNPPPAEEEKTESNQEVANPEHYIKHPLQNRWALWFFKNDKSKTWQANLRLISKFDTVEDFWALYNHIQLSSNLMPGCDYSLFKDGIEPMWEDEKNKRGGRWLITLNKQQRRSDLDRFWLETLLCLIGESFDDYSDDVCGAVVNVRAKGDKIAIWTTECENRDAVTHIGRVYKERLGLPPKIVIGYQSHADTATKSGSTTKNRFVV
Sequence of DNA dC->dU-editing enzyme APOBEC-3G (Q9HC16 whole entry): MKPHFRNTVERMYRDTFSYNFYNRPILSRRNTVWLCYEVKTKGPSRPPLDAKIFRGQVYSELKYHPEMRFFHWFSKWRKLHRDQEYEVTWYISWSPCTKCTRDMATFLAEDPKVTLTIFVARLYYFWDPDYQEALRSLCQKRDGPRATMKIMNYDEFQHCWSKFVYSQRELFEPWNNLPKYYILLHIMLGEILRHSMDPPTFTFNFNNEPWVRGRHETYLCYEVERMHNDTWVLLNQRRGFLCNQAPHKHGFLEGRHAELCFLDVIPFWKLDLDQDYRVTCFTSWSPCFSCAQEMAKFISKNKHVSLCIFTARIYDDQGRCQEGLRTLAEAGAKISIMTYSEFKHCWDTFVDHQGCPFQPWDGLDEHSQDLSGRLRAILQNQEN
Sequence of Phosphomannomutase 2 (O15305 whole entry): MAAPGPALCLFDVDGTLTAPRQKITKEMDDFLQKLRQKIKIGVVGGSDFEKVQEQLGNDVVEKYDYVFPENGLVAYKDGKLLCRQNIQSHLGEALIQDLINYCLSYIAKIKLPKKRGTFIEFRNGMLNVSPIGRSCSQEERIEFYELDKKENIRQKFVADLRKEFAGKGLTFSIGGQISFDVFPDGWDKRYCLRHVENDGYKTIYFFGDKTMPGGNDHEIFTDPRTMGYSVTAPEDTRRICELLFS
Sequence of Glucose-6-phosphate 1-dehydrogenase (P11413 whole entry, the tested form may be a part): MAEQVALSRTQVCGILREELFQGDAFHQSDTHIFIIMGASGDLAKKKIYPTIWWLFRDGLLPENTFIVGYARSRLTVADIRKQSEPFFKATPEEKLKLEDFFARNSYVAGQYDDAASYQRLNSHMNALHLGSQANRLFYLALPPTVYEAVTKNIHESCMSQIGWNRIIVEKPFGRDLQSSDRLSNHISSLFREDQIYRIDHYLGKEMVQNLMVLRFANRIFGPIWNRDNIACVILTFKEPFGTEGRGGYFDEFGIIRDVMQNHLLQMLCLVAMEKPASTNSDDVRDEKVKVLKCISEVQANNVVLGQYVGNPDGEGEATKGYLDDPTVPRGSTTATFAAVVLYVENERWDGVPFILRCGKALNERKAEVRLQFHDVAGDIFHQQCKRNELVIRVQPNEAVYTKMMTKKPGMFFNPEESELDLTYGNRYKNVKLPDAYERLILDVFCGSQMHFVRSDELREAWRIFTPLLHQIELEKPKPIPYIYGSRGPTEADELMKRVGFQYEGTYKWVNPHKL
Sequence of Large T antigen (P03070 whole entry): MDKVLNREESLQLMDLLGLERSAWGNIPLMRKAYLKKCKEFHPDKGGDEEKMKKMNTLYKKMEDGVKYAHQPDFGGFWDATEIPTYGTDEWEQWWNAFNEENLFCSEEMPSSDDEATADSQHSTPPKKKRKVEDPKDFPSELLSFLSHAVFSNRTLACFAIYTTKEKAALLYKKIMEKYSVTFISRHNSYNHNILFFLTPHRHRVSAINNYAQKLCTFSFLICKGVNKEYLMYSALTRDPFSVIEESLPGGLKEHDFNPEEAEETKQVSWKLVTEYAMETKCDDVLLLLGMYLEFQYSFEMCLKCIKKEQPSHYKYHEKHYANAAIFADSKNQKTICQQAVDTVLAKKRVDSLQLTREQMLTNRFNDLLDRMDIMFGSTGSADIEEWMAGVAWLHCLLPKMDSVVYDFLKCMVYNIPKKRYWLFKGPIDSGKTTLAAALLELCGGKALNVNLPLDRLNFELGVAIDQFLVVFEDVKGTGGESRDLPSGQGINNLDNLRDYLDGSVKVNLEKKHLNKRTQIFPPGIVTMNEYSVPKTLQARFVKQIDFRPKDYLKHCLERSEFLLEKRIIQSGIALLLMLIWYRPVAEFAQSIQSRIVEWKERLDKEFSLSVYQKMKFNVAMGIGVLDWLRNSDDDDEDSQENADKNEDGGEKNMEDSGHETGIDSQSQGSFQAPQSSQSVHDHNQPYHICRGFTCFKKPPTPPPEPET
Sequence of DNA dC->dU-editing enzyme APOBEC-3A (P31941 whole entry): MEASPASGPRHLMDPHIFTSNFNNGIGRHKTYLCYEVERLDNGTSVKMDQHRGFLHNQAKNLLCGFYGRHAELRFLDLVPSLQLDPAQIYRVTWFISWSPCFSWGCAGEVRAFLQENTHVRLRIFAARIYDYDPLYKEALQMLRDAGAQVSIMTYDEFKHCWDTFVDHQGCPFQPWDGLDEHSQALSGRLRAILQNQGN

For `CCSC1=N/C(=C\c2ccc(OC)cc2)C(=O)N1`, the EC50 [1] was 3.35 µM (active).
With `O=c1c2ccccc2sn1-c1nccs1` the IC50 [2] was 13.5 µM (active), the CC50 (Vero) was > 25 µM (active) and the IC50 (Large T antigen) was 12.9 µM (active). For the same compound, the IC50 [3] was 42.5 µM (active), the IC50 [4] was 2.65 µM (active) and the IC50 (Phosphomannomutase 2) was > 100 µM (inactive). The IC50 [5] was 11.3 µM (active).
`C[N+]1(CC2COC(c3ccco3)O2)CCCCC1` (configuration not stated) was tested, and the IC50 [6] was 3.23 µM (active), the IC50 [7] was 3.15 µM (active) and the EC50 [8] was > 195 µM (not active). For the same compound, the IC50 [9] was 3.34 µM (active).
`O=C(Nc1cccc2ncccc12)c1ccc(Cl)cc1` was tested, and the IC50 [10] was 6.11 µM (active), the IC50 [11] was > 100 µM (inactive) and the IC50 [12] was 2.79 µM (active). For the same compound, the IC50 [13] was 9.09 µM (active).
For `Cc1c(C(=O)N(C)C2CCCCC2)sc2ncnc(N3CCN(c4ccccc4)CC3)c12`, the EC50 [14] was 5.84 µM (active).
